Source: PubChem BioAssay (NCI)
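1) Cells in 96-well plates. 2) Compound, 48 h, 5 concentrations. 3) Linear interpolation between surrounding doses. 4) Unreached endpoint = highest concentration. GI50 marks 50% less growth. Definition used: TGI = concentration required for complete inhibition of growth.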

Key:
Assay in all cases: DTP human tumour cell line panel, 48 h
[1] = test system: IGROV1 ovarian
[2] = test system: NCI-H226 lung
[3] = test system: OVCAR-4 ovarian
[4] = test system: SK-OV-3 ovarian
[5] = test system: HT29 colon
[6] = test system: HL-60(TB) leukemia
[7] = test system: NCI-H522 lung
[8] = test system: HCT-15 colon
[9] = test system: EKVX NSCLC
[10] = test system: 786-0 renal
[11] = test system: SF-268 CNS
[12] = test system: UO-31 renal
[13] = test system: NCI-H460 lung
[14] = test system: DU-145 prostate
[15] = test system: RXF 393 renal
[16] = test system: A549 NSCLC
[17] = test system: OVCAR-8 ovarian
[18] = test system: SF-539 CNS
[19] = test system: MCF7 breast
[20] = test system: LOX IMVI melanoma
[21] = test system: SK-MEL-5 melanoma
[22] = test system: SK-MEL-28 melanoma
[23] = test system: K-562 leukemia
[24] = test system: U251 CNS
[25] = test system: HOP-92 NSCLC
[26] = test system: M14 melanoma
[27] = test system: HCC-2998 colon
[28] = test system: ACHN renal

## C#CCOc1ccc(-c2csc(NC(=O)C=C)n2)cc1NS(=O)(=O)c1cccc2c(N(C)C)cccc12
[1]
  GI50: 1090 nM
  TGI: 2700 nM
[2]
  GI50: 1170 nM
  TGI: 3.51 µM
[3]
  GI50: 3 µM
  TGI: 22.6 µM
[4]
  GI50: 7.07 µM
  TGI: 15.7 µM
[5]
  GI50: 838 nM
  TGI: 1670 nM
[6]
  GI50: 683 nM
  TGI: 2120 nM
[7]
  GI50: 806 nM
  TGI: 1630 nM
[8]
  GI50: 900 nM
  TGI: 2160 nM
[9]
  GI50: 7.92 µM
  TGI: 22.6 µM
[10]
  GI50: 909 nM
  TGI: 1940 nM
[11]
  GI50: 2460 nM
  TGI: 11 µM
[12]
  GI50: 727 nM
  TGI: 1430 nM
[13]
  GI50: 2110 nM
  TGI: 8.52 µM
[14]
  GI50: 1540 nM
  TGI: 5.25 µM
[15]
  GI50: 1120 nM
  TGI: 2070 nM
[16]
  GI50: 2970 nM
  TGI: 13.2 µM
[17]
  GI50: 930 nM
  TGI: 2020 nM
[18]
  GI50: 861 nM
  TGI: 1780 nM
[19]
  GI50: 1090 nM
  TGI: 5.1 µM
[20]
  GI50: 25.2 nM
  TGI: 668 nM
[21]
  GI50: 1680 nM
  TGI: 6.28 µM
[22]
  GI50: 1250 nM
  TGI: 3.61 µM
[23]
  GI50: 1200 nM
  TGI: 3.8 µM
[24]
  GI50: 2400 nM
  TGI: 8.39 µM
[25]
  GI50: 819 nM
  TGI: 3.61 µM
[26]
  GI50: 1020 nM
  TGI: 2580 nM
[27]
  GI50: 3 µM
  TGI: 9.58 µM
[28]
  GI50: 861 nM
  TGI: 1740 nM
